In patent publication US9657009B2, “Heteroaryl substituted pyridyl compounds useful as kinase modulators” (BRISTOL-MYERS SQUIBB COMPANY, priority 2012, dated 2017):
pIC50: −log10 of the molar value.

Molecular target: IRAK4 (Homo sapiens (Human), UniProt Q9NWZ3)
Experiment: IRAK4 Inhibition Assay
Type: biochemical
Details: ATP 500 μM; IRAK4 0.6 nM; 60 min at room temperature; read-out: IRAK4 IC50
Protocol: IRAK4 Inhibition Assay The assays were performed in U-bottom 384-well plates. […] The reaction was initiated by the combination of IRAK4 with substrates and test compounds. The reaction mixture was incubated at room temperature for 60 min. and terminated by adding 45 μL of 35 mM EDTA to each sample.

Chain of IRAK4 (Q9NWZ3 whole entry, species assumed): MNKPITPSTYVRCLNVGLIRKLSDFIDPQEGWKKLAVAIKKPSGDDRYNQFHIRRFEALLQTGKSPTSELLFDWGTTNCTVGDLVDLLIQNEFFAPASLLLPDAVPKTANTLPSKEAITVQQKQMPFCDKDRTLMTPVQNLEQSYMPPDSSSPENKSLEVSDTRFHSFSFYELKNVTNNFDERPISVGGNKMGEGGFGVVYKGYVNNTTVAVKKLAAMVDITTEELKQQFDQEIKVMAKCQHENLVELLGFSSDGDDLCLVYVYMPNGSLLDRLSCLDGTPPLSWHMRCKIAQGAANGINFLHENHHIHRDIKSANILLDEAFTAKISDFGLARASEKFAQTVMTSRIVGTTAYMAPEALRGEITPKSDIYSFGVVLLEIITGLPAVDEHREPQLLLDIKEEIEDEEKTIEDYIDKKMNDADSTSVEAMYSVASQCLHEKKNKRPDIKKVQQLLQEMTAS

| Structure (SMILES) | pIC50 |
| --- | --- |
| CC(C)NC(=O)N[C@H](C)CCNC(=O)c1cnc(Nc2ncc(C#N)cc2F)cc1NC(C)C [Example 29, (R)-6-((5-cyano-3-fluoropyridin-2-yl)amino)-4-(isopropylamino)-N-(3-(3-isopropylureido)butyl)nicotinamide] | 8.92 |
| CC(C)Nc1cc(Nc2ncc(C#N)cc2F)ncc1C(=O)N[C@H]1CC[C@H](S(C)(=O)=O)CC1 [Example 33, 6-((5-cyano-3-fluoropyridin-2-yl)amino)-4-(isopropylamino)-N-((1R,4R)-4-(methylsulfonyl)cyclohexyl)nicotinamide] | 8.00 |
| CC(=O)Nc1nc(Nc2cc(NC(C)C)c(C(=O)NC[C@@H](F)C(C)(C)O)cn2)ncc1C#N [Example 34] | 8.21 |
| CC(C)(O)[C@H](F)CNC(=O)c1cnc(Nc2ncc(C(N)=O)cc2Cl)cc1NC1CCC(F)C1 (stereo partly drawn) [Example 38] | 8.35 |
| C[C@@H](CF)Nc1cc(Nc2ncc(C#N)cc2Cl)ncc1C(=O)NC[C@@H](F)C(C)(C)O [Example 39, 6-((3-chloro-5-cyanopyridin-2-yl)amino)-N—((R)-2-fluoro-3-hydroxy-3-methylbutyl)-4-(((S)-1-fluoropropan-2-yl)amino)nicotinamide] | 8.42 |
| CC(C)Nc1cc(Nc2ncc(C#N)c(NC(C)C)n2)ncc1C(=O)NC[C@@H](F)C(C)(C)O [Example 40] | 8.19 |
| CC(C)(O)[C@H](F)CNC(=O)c1cnc(Nc2nc(OC3CCNCC3)ncc2Cl)cc1NC1CC1 [Example 42] | 7.83 |
| CC(C)(O)C(F)(F)CNC(=O)c1cnc(Nc2ncc(C#N)cc2Cl)cc1NC1CC1 [Example 43, 6-((3-chloro-5-cyanopyridin-2-yl)amino)-4-(cyclopropylamino)-N-(2,2-difluoro-3-hydroxy-3-methylbutyl)nicotinamide] | 7.97 |
| CC(C)Nc1cc(Nc2ccc(=O)[nH]n2)ncc1C(=O)NC[C@@H](F)C(C)(C)O [Example 45] | 8.12 |
| CC(C)(F)CNc1cc(Nc2ncc(C#N)cc2Cl)ncc1C(=O)NC[C@@H](F)C(C)(C)O [Example 46] | 7.77 |
| CC(C)(O)[C@H](F)CNC(=O)c1cnc(Nc2ncc(C#N)cc2F)cc1NC1CC1 [Example 47] | 8.72 |
| CC(C)(O)[C@H](F)CNC(=O)c1cnc(Nc2ncc(C#N)cc2F)cc1NC1CCOCC1 [Example 49] | 8.51 |
| C[C@@H](CO)Nc1cc(Nc2ncc(C#N)cc2Cl)ncc1C(=O)NC[C@@H](F)C(C)(C)O [Example 50] | 8.03 |
| CCNc1cc(Nc2ncc(C#N)cc2Cl)ncc1C(=O)NC[C@@H](F)C(C)(C)O [Example 51] | 8.34 |
| CC(C)Nc1cc(Nc2ncncc2F)ncc1C(=O)NC[C@@H](F)C(C)(C)O [Example 53] | 8.09 |
| CC(C)(O)[C@H](F)CNC(=O)c1cnc(Nc2ncc(C#N)cn2)cc1NC1CCC(F)C1 (stereo partly drawn) [Example 56] | 8.30 |
| CCNc1cc(Nc2ncc(C#N)cn2)ncc1C(=O)NC[C@@H](F)C(C)(C)O [Example 58] | 7.98 |
| CNC(=O)[C@H]1CC[C@H](NC(=O)c2cnc(Nc3ncc(C#N)cc3F)cc2NC2CC2)CC1 [Example 59] | 8.13 |
| CNC(=O)[C@H]1CC[C@H](NC(=O)c2cnc(Nc3ncc(C#N)cc3Cl)cc2NC2CC2)CC1 [Example 60] | 8.17 |
| CNC(=O)[C@H]1CC[C@H](NC(=O)c2cnc(Nc3ncc(C#N)cc3F)cc2NC2CCOCC2)CC1 [Example 61] | 8.08 |
| Cc1nc(Nc2cc(NC(C)C)c(C(=O)NC[C@@H](F)C(C)(C)O)cn2)ccc1C#N [Example 63] | 8.42 |
| CC(=O)N[C@H](C)CCNC(=O)c1cnc(Nc2ncc(C#N)cc2F)cc1NC(C)C [Example 64] | 8.51 |
| CC(C)(O)[C@H](F)CNC(=O)c1cnc(Nc2ncc(C#N)cc2Cl)cc1NCC(F)(F)F [Example 65] | 8.54 |
| CCNc1cc(Nc2ncc(C#N)cc2F)ncc1C(=O)NC[C@@H](F)C(C)(C)O [Example 66] | 8.42 |
| CC(=O)N[C@H]1CC[C@H](NC(=O)c2cnc(Nc3ncc(C#N)cc3Cl)cc2NC2CC2)CC1 [Example 67] | 8.14 |
| CCn1ncc(Nc2cc(NC(C)C)c(C(=O)NC[C@@H](F)C(C)(C)O)cn2)n1 [Example 72] | 7.98 |

| Structure (SMILES) | pIC50 |
| --- | --- |
| CC(C)(O)c1cnc(Nc2cc(Nc3ncc(C#N)cc3Cl)ncc2C(=O)NC[C@@H](F)C(C)(C)O)s1 [Example 75] | 8.85 |
| CC(C)(O)[C@H](F)CNC(=O)c1cnc(Nc2ncc(C#N)cc2Cl)cc1NC1CCCC1O (stereo partly drawn) [Example 76] | 8.19 |
| CC(=O)N[C@H]1CC[C@H](NC(=O)c2cnc(Nc3ncc(C#N)cc3Cl)cc2NC2CCOCC2)CC1 [Example 77] | 8.11 |
| CC(C)(O)[C@H](F)CNC(=O)c1cnc(Nc2ncc(C#N)cc2Cl)cc1NC1CCOCC1F (stereo partly drawn) [Example 79] | 8.52 |
| CC(C)Nc1cc(Nc2ncc(F)cc2F)ncc1C(=O)NC[C@@H](F)C(C)(C)O [Example 80] | 8.15 |
| CC(C)(O)[C@H](F)CNC(=O)c1cnc(Nc2ccc(Cl)cn2)cc1NC1CC1 [Example 81] | 8.15 |
| CC(=O)N[C@H]1CC[C@H](NC(=O)c2cnc(Nc3ncc(C#N)cc3F)cc2NC2CC2)CC1 [Example 83] | 8.14 |
| Cc1cc(C#N)cnc1Nc1cc(NC(C)C)c(C(=O)NC[C@@H](F)C(C)(C)O)cn1 [Example 85] | 8.44 |
| CC(C)(O)[C@H](F)CNC(=O)c1cnc(Nc2ncc(C#N)cn2)cc1NC1CCC(F)C1 (stereo partly drawn) [Example 86] | 8.32 |
| CC(C)(O)[C@H](F)CNC(=O)c1cnc(Nc2ncc(F)cc2F)cc1NC1CC1 [Example 89] | 7.84 |
| CC(C)(O)[C@H](F)CNC(=O)c1cnc(Nc2ncc(C#N)cc2Cl)cc1NC12CC(C1)C2 [Example 90] | 8.46 |
| C[C@@H](CO)Nc1cc(Nc2ncc(C#N)cc2F)ncc1C(=O)NC[C@@H](F)C(C)(C)O [Example 91] | 8.37 |
| CC(C)Nc1cc(Nc2ncc(C#N)cc2Cl)ncc1C(=O)N[C@H]1CC[C@H](O)CC1 [Example 92] | 7.90 |
| COC(=O)Cn1cc(Cl)c(Nc2cc(NC(C)C)c(C(=O)NC[C@@H](F)C(C)(C)O)cn2)n1 [Example 93] | 7.76 |
| CC(C)(O)[C@H](F)CNC(=O)c1cnc(Nc2ncncc2F)cc1NC1CC1 [Example 94] | 7.92 |
| CC(C)(O)[C@H](F)CNC(=O)c1cnc(Nc2ncncc2Cl)cc1NC1CCCOC1 (stereo partly drawn) [Example 96] | 7.95 |
| CC(C)(O)[C@H](F)CNC(=O)c1cnc(Nc2ncc(C#N)cc2F)cc1NC1CCCOC1 (stereo partly drawn) [Example 97] | 8.28 |
| CC(C)(O)[C@H](F)CNC(=O)c1cnc(Nc2ncc(C#N)cc2F)cc1NC1CCCOC1 (stereo partly drawn) [Example 98] | 8.12 |
| CCC(C)Nc1cc(Nc2ncc(C#N)cn2)ncc1C(=O)NC[C@@H](F)C(C)(C)O (stereo partly drawn) [Example 99] | 8.38 |
| C[C@H](CO)Nc1cc(Nc2ncc(F)cc2F)ncc1C(=O)NC[C@@H](F)C(C)(C)O [Example 100] | 7.76 |
| C[C@@H](CO)Nc1cc(Nc2ncc(C#N)cn2)ncc1C(=O)NC[C@@H](F)C(C)(C)O [Example 101] | 8.25 |
| CC(C)(F)CNc1cc(Nc2ncc(C#N)cc2Cl)ncc1C(=O)NC1CCC(C(C)(C)O)CC1 (stereo not drawn) [Example 103] | 8.28 |
| CC(C)(O)[C@H](F)CNC(=O)c1cnc(Nc2ncc(C#N)cc2Cl)cc1NC1CCCCC1O (stereo partly drawn) [Example 104] | 8.07 |
| CC(C)(O)[C@H](F)CNC(=O)c1cnc(Nc2ncc(C#N)cn2)cc1N[C@H]1CCC[C@H]1F [Example 107] | 8.04 |
| CC(C)(O)[C@H](F)CNC(=O)c1cnc(Nc2ncc(F)cc2F)cc1NC1CCOCC1F (stereo partly drawn) [Example 108] | 8.06 |
